# From ChEMBL document CHEMBL1201862, “PubChem BioAssay data set” (2004)
#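 The compound was tested at five concentrations on cells cultured in 96-well plates, with a 48-hour exposure period. GI50 marks 50% less growth.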 Active and inactive are the calls of the source. Rule as the data show it: active = GI50 up to about 1.1 µM and inactive = higher.
# What was measured:
# Experiment in all cases: NCI tumour cell line growth inhibition, 48 h
# [1] = system: SK-MEL-2
# [2] = system: Hs-578T
# [3] = system: SK-MEL-5
# [4] = system: UACC-257
# [5] = system: MDA-MB-435
# [6] = system: ACHN
# [7] = system: RXF 393
# [8] = system: COLO 205
# [9] = system: CCRF-CEM
# [10] = system: UO-31
# [11] = system: SF-268
# [12] = system: NCI-H522
# [13] = system: PC-3
# [14] = system: HOP-62
# [15] = system: OVCAR-4
# [16] = system: A549
# [17] = system: HCC 2998
# [18] = system: SW-620
# [19] = system: SN12C
# [20] = system: SK-MEL-28
# [21] = system: MCF7
# [22] = system: IGROV-1
# [23] = system: NCI-H226
# [24] = system: MOLT-4
# [25] = system: UACC-62
# [26] = system: HT-29
# [27] = system: 786-0
# [28] = system: BT-549
# [29] = system: OVCAR-3
# [30] = system: SR
# [31] = system: MDA-N
# [32] = system: SF-539
# [33] = system: Malme-3M
# [34] = system: NCI/ADR-RES
# [35] = system: OVCAR-5
# [36] = system: LOX IMVI
# [37] = system: NCI-H23
# [38] = system: HCT-15
# [39] = system: HL-60
# [40] = system: KM12
# [41] = system: M14
# [42] = system: T47D
# [43] = system: U-251
# [44] = system: SNB-75
# [45] = system: RPMI-8226
# [46] = system: EKVX
# [47] = system: SNB-19
# [48] = system: OVCAR-8
# [49] = system: TK-10
# [50] = system: K562
# [51] = system: MDA-MB-231
# [52] = system: HCT-116
# [53] = system: SK-OV-3
# [54] = system: SF-295
# [55] = system: HOP-92
# [56] = system: CAKI-1
# [57] = system: DU-145
# [58] = system: NCI-H460
# [59] = system: A498
smiles,measurement,setting,value
Clc1cc2nc(C3CCCO3)[nH]c2cc1Cl (centres undefined),GI50,[1],> 100 µM (inactive)
same,GI50,[2],40.9 µM (inactive)
same,GI50,[3],35.9 µM (inactive)
same,GI50,[4],> 100 µM (inactive)
same,GI50,[5],28.2 µM (inactive)
same,GI50,[6],> 100 µM (inactive)
same,GI50,[7],66.5 µM (inactive)
same,GI50,[8],37.1 µM (inactive)
same,GI50,[9],68.4 µM (inactive)
same,GI50,[10],16.9 µM (inactive)
same,GI50,[11],67 µM (inactive)
same,GI50,[12],20.4 µM (inactive)
same,GI50,[13],42.7 µM (inactive)
same,GI50,[14],> 100 µM (inactive)
same,GI50,[15],46.8 µM (inactive)
same,GI50,[16],54.6 µM (inactive)
same,GI50,[17],76.4 µM (inactive)
same,GI50,[18],45.8 µM (inactive)
same,GI50,[19],> 100 µM (inactive)
same,GI50,[20],78 µM (inactive)
same,GI50,[21],29.2 µM (inactive)
same,GI50,[22],61.9 µM (inactive)
same,GI50,[23],> 100 µM (inactive)
same,GI50,[24],52 µM (inactive)
same,GI50,[25],45.8 µM (inactive)
same,GI50,[26],33.7 µM (inactive)
same,GI50,[27],> 100 µM (inactive)
same,GI50,[28],26.2 µM (inactive)
same,GI50,[29],32.5 µM (inactive)
same,GI50,[30],37.6 µM (inactive)
same,GI50,[31],20.1 µM (inactive)
same,GI50,[32],> 100 µM (inactive)
same,GI50,[33],> 100 µM (inactive)
same,GI50,[34],43.5 µM (inactive)
same,GI50,[35],> 100 µM (inactive)
same,GI50,[36],35.4 µM (inactive)
same,GI50,[37],34.4 µM (inactive)
same,GI50,[38],31.6 µM
same,GI50,[39],37.7 µM (inactive)
same,GI50,[40],32.7 µM (inactive)
same,GI50,[41],72.9 µM (inactive)
same,GI50,[42],46.2 µM (inactive)
same,GI50,[43],> 100 µM (inactive)
same,GI50,[44],30.1 µM (inactive)
same,GI50,[45],72.8 µM (inactive)
same,GI50,[46],87.5 µM (inactive)
same,GI50,[47],> 100 µM (inactive)
same,GI50,[48],57.9 µM (inactive)
same,GI50,[49],> 100 µM (inactive)
same,GI50,[50],38.5 µM (inactive)
same,GI50,[51],> 100 µM (inactive)
same,GI50,[52],39.2 µM (inactive)
same,GI50,[53],69.2 µM (inactive)
same,GI50,[54],57.1 µM (inactive)
same,GI50,[55],85.3 µM (inactive)
CSc1ncnc2c1cnn2Cc1cn(CCCCO)nn1,GI50,[1],> 100 µM (inactive)
same,GI50,[2],71.1 µM (inactive)
same,GI50,[3],> 100 µM (inactive)
same,GI50,[4],> 100 µM (inactive)
same,GI50,[5],> 100 µM (inactive)
same,GI50,[6],> 100 µM (inactive)
same,GI50,[7],> 100 µM (inactive)
same,GI50,[8],> 100 µM (inactive)
same,GI50,[9],> 100 µM (inactive)
same,GI50,[10],> 100 µM (inactive)
same,GI50,[11],> 100 µM (inactive)
same,GI50,[12],> 100 µM (inactive)
same,GI50,[13],> 100 µM (inactive)
same,GI50,[14],> 100 µM (inactive)
same,GI50,[56],> 100 µM (inactive)
same,GI50,[57],> 100 µM (inactive)
same,GI50,[15],> 100 µM (inactive)
same,GI50,[16],> 100 µM (inactive)
same,GI50,[17],> 100 µM (inactive)
same,GI50,[18],> 100 µM (inactive)
same,GI50,[19],> 100 µM (inactive)
same,GI50,[20],> 100 µM (inactive)
same,GI50,[21],> 100 µM (inactive)
same,GI50,[22],> 100 µM (inactive)
same,GI50,[23],> 100 µM (inactive)
same,GI50,[24],> 100 µM (inactive)
same,GI50,[25],> 100 µM (inactive)
same,GI50,[26],> 100 µM (inactive)
same,GI50,[27],> 100 µM (inactive)
same,GI50,[28],> 100 µM (inactive)
same,GI50,[58],> 100 µM (inactive)
same,GI50,[29],> 100 µM (inactive)
same,GI50,[30],> 100 µM (inactive)
same,GI50,[31],> 100 µM (inactive)
same,GI50,[32],> 100 µM (inactive)
same,GI50,[33],> 100 µM (inactive)
same,GI50,[59],> 100 µM (inactive)
same,GI50,[35],> 100 µM (inactive)
same,GI50,[36],> 100 µM (inactive)
same,GI50,[37],> 100 µM (inactive)
same,GI50,[38],> 100 µM
same,GI50,[40],> 100 µM (inactive)
same,GI50,[41],> 100 µM (inactive)
same,GI50,[42],> 100 µM (inactive)
same,GI50,[43],> 100 µM (inactive)
same,GI50,[44],> 100 µM (inactive)
same,GI50,[45],> 100 µM (inactive)
same,GI50,[46],> 100 µM (inactive)
same,GI50,[47],> 100 µM (inactive)
same,GI50,[48],> 100 µM (inactive)
same,GI50,[49],> 100 µM (inactive)
same,GI50,[50],> 100 µM (inactive)
same,GI50,[51],> 100 µM (inactive)
same,GI50,[52],> 100 µM (inactive)
same,GI50,[53],> 100 µM (inactive)
same,GI50,[54],> 100 µM (inactive)
same,GI50,[55],> 100 µM (inactive)
COc1cc2c(cc1OC)C1=Cc3cc(OC)c(OC)cc3C(C)N1C=C2 (centres undefined),GI50,[2],74 µM (inactive)
same,GI50,[3],38.4 µM (inactive)
same,GI50,[4],33.7 µM (inactive)
same,GI50,[5],41.8 µM (inactive)
same,GI50,[6],> 100 µM (inactive)
same,GI50,[7],57.4 µM (inactive)
same,GI50,[8],22 µM (inactive)
same,GI50,[9],27.3 µM (inactive)
same,GI50,[10],55.1 µM (inactive)
same,GI50,[11],21.5 µM (inactive)
same,GI50,[13],12.3 µM (inactive)
same,GI50,[14],44.2 µM (inactive)
same,GI50,[57],> 100 µM (inactive)
same,GI50,[16],> 100 µM (inactive)
same,GI50,[17],> 100 µM (inactive)
same,GI50,[18],84.5 µM (inactive)
same,GI50,[19],87.5 µM (inactive)
same,GI50,[20],63.2 µM (inactive)
same,GI50,[21],21 µM (inactive)
same,GI50,[22],> 100 µM (inactive)
same,GI50,[23],> 100 µM (inactive)
same,GI50,[24],35.2 µM (inactive)
same,GI50,[25],75.7 µM (inactive)
same,GI50,[26],74.3 µM (inactive)
same,GI50,[27],> 100 µM (inactive)
same,GI50,[28],34.6 µM (inactive)
same,GI50,[58],47.1 µM (inactive)
same,GI50,[29],32.1 µM (inactive)
same,GI50,[31],51.5 µM (inactive)
same,GI50,[32],> 100 µM (inactive)
same,GI50,[33],> 100 µM (inactive)
same,GI50,[34],> 100 µM (inactive)
same,GI50,[59],82.6 µM (inactive)
same,GI50,[35],> 100 µM (inactive)
same,GI50,[37],> 100 µM (inactive)
same,GI50,[38],69.7 µM
same,GI50,[39],> 100 µM (inactive)
same,GI50,[40],74.8 µM (inactive)
same,GI50,[41],> 100 µM (inactive)
same,GI50,[42],29.3 µM (inactive)
same,GI50,[43],37.2 µM (inactive)
same,GI50,[44],40 µM (inactive)
same,GI50,[45],40 µM (inactive)
same,GI50,[46],> 100 µM (inactive)
same,GI50,[47],59.4 µM (inactive)
same,GI50,[48],52 µM (inactive)
same,GI50,[49],83.4 µM (inactive)
same,GI50,[50],25.9 µM (inactive)
same,GI50,[52],50.2 µM (inactive)
same,GI50,[53],> 100 µM (inactive)
same,GI50,[54],> 100 µM (inactive)
same,GI50,[55],> 100 µM (inactive)
